Values joined by “and” are separate entries in the source; they are usually repeats but may differ in a detail not shown here. Identical values can stand only once.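 The compound was tested at five concentrations on cells cultured in 96-well plates, with a 48-hour exposure period. GI50 is the concentration that inhibits growth by half. TGI is the concentration that stops growth completely.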

Experimental findings from PubChem BioAssay (NCI) are described below.

Assay in all cases: NCI-60 cell line screen, 48 h
Experiment [1] relates to NCI-H460 lung.
The test system of experiment [2] is OVCAR-3 ovarian.
Experiment [3] concerns OVCAR-5 ovarian.
Experiment [4] has as its system RPMI-8226 leukemia.
Experiment [5] concerns SK-OV-3 ovarian.
Experiment [6] has as its system SN12C renal.
Experiment [7] has as its system SW-620 colon.
The subject of experiment [8] is CAKI-1 renal.
Experiment [9] relates to T-47D breast.
Experiment [10] deals with SK-MEL-28 melanoma.

In the case of `C=CCCCC12CCCc3cccc(c31)NC2=O` (stereo not given), the TGI in [1] is 33.8 µM; in [2] it was 39.1 µM; in experiment [3], 43.5 µM; in [4], 47.3 µM; in experiment [5], 45.3 µM; in experiment [6] it was above 100 µM. Besides, in experiment [7], the TGI amounted to 41.8 µM.
Turning to `C[C@@H]1C[C@H](O)[C@]2(O)O[C@@H]3C[C@@]4(C=O)[C@@H](CC=C5[C@@H]4CC[C@]4(C)[C@@H](C6=CC(=O)OC6)CC[C@]54O)C[C@H]3O[C@@H]2O1`, the TGI in [8] was found to be 0.0722 µM; in [1], 0.0711 µM; in [2] it was 0.308 µM; in experiment [3] it was 0.492 µM; in experiment [4], 0.349 µM; in experiment [5] it was 1.86 µM. The TGI is 0.131 µM in experiment [6], 1.87 µM in experiment [7] and 0.325 µM in experiment [9].
Consider `C[C@]12CC/C(=N\O)C=C1CC[C@@H]1[C@@H]2CC[C@]2(C)C(=N/O)/C(=C/c3cccnc3)C[C@@H]12`, for which the TGI in experiment [1] is 22.7 µM; in experiment [3], 75.3 µM; in experiment [4] it was 8.95 µM; in experiment [10], 53.1 µM; in experiment [5], above 100 µM; in [6] it was 43.5 µM. The TGI in experiment [7] is above 100 µM.
On to `COC(c1ccc(C(C)(C)C)cc1)(c1ccc(C(C)(C)C)cc1)c1cc(C(O)(c2cc(C(OC)(c3ccc(C(C)(C)C)cc3)c3ccc(C(C)(C)C)cc3)c(C)cc2C)c2cc(C(OC)(c3ccc(C(C)(C)C)cc3)c3ccc(C(C)(C)C)cc3)c(C)cc2C)c(C)cc1C`, for which the TGI in experiment [8], in [1], in [2], in experiment [3], in experiment [10] and in [5] was above 100 µM in each case. The TGI in experiment [7] and in experiment [9] was above 100 µM throughout.
Turning to `O=C1C(Cl)N(c2ccccc2)C1c1c[nH]c2ccccc12` (stereo not given), the TGI in experiment [1], in [2], in experiment [3], in experiment [4], in experiment [10] and in [5] was above 100 µM in each case. Further, the TGI in experiment [6] and in experiment [7] was above 100 µM throughout.
Take `O=c1nc2c(c(-c3cccc(Cl)c3)[nH]1)COC/C2=C\c1cccc(Cl)c1`: the TGI in experiment [8], in [1], in [2], in experiment [3], in experiment [4] and in experiment [5] was above 100 µM throughout. Also, the TGI in experiment [6], in [7] and in experiment [9] was above 100 µM each time.
Regarding `Cc1nc2nnc(C)n2c2c1C(=O)Nc1ccccc1N2`, the TGI in [1], in experiment [2], in experiment [4], in experiment [10], in [5] and in [6] was above 100 µM throughout. In addition, the TGI in experiment [7] is above 100 µM.
As to `O=C(OCc1ccccc1)OOC(=O)OCc1ccccc1`, the TGI in experiment [8], in experiment [1], in [2], in experiment [3], in experiment [4] and in [10] was above 100 µM throughout. The TGI in experiment [5], in experiment [6] and in experiment [7] was above 100 µM each time.
As to `O=C1CC(c2ccc([N+](=O)[O-])cc2)C2(C(=O)NC(=S)NC2=O)C(c2ccc([N+](=O)[O-])cc2)C1` (stereo not given), the TGI in experiment [1] is 42.2 µM; in experiment [2], 76.1 µM; in [3], 87.4 µM; in experiment [4] it was above 100 µM; in [10], above 100 µM; in [5], above 100 µM. In addition, the TGI was 53.4 µM in experiment [6], above 100 µM in experiment [7] and 96.3 µM in [9].
As to `CC1=CC(=O)N(n2c(C)n[nH]c2=O)C1=O`, the TGI in experiment [8], in experiment [1], in [2], in [3], in [4] and in experiment [5] was above 100 µM in each case. For the same molecule, the TGI in experiment [6], in experiment [7] and in experiment [9] was above 100 µM in each case.
Regarding `CCN(CCCN(CC)C(=O)N[C@@H](Cc1ccccc1)C(=O)NC)C(=O)N[C@@H](Cc1ccccc1)C(=O)NC`, the TGI in [8], in experiment [1], in experiment [2], in [3], in experiment [10] and in experiment [5] was above 100 µM each time. Besides, the TGI in [7] and in [9] was above 100 µM in each case.
Take `CN1CCN(C(=S)N(C)C(=O)c2ccc(Cl)cc2)CC1`: the TGI in [1], in [2], in experiment [3], in [4], in experiment [10] and in [6] was above 100 µM each time. In addition, the TGI in experiment [7] and in experiment [9] was above 100 µM in each case.
For `Cc1cc2cccc(Cl)c2nc1C(=O)c1ccccc1`, the TGI in [8], in experiment [2], in [3], in [4], in experiment [10] and in [6] was above 100 µM each time. For the same molecule, in experiment [7], the TGI was above 100 µM.
For `CO/N=C1/c2sccc2[C@H](NC(=O)CNC(=O)OC(C)(C)C)[C@@H]1O`, the TGI in experiment [8], in experiment [1], in [2], in experiment [3], in [10] and in experiment [5] was above 100 µM throughout. The TGI in experiment [6], in [7] and in experiment [9] was above 100 µM throughout.
Take `O=c1c2cc(I)ccc2[nH]c(=S)n1Cc1ccccc1`: the TGI in experiment [1], in experiment [2], in experiment [3], in experiment [4], in experiment [10] and in [5] was above 100 µM each time. Besides, the TGI in experiment [6], in experiment [7] and in [9] was above 100 µM in each case.
Consider `COc1cc([C@@H]2c3cc4c(cc3C[C@H]3COC(=O)[C@@H]32)OCO4)cc(OC)c1OC`, for which the GI50 is 0.00463 µM in experiment [8]; 0.00327 µM and < 0.005 µM in experiment [1]; 0.00424 µM and 0.00911 µM in experiment [2]; 0.00692 µM in experiment [3]; 0.00382 µM and 0.01 µM in experiment [4]; 0.00645 µM in experiment [10]. In addition, the GI50 was 0.00431 µM in [5], 0.0067 µM in experiment [6] and 0.00336 µM in [7]. Further, the TGI is 1.72 µM in experiment [8]; below 0.005 µM in experiment [1]; 0.0745 µM in experiment [2]; above 50 µM in experiment [3]; 6.57 µM in experiment [4]; above 50 µM in experiment [10]. Besides, the TGI in [5] is above 50 µM; in experiment [6] it was above 10.8 µM; in experiment [7], above 50 µM.
As to `COc1cccc(-c2nc(-c3cnccn3)n(Cc3ccccc3)n2)c1`, the TGI in experiment [1], in experiment [2], in experiment [3], in [4], in experiment [10] and in experiment [5] was above 100 µM each time. Moreover, the TGI in experiment [6], in experiment [7] and in experiment [9] was above 100 µM in each case.
Consider `CC(=O)Nc1ccc(Cl)c(Cl)c1`, for which the TGI in experiment [1], in experiment [2], in experiment [4], in experiment [10], in experiment [5] and in [6] was above 100 µM in each case. Besides, in experiment [7], the TGI was above 100 µM.
Consider `O=C(/C=C/c1cccs1)c1ccc(Cl)cc1`, for which the TGI in [1] is above 100 µM; in [3] it was above 100 µM; in experiment [4], 57.8 µM; in [10] it was above 100 µM; in [5], above 100 µM; in experiment [6] it was above 100 µM. For the same molecule, the TGI in experiment [7] was 92.9 µM; in [9], above 100 µM.
On to `O=C1/C(=C/c2ccc(F)cc2)CNC/C1=C\c1ccc(F)cc1`, for which the TGI in experiment [8] is 3.4 µM; in experiment [1], 2.36 µM; in experiment [2], 3.99 µM; in experiment [3] it was 8.99 µM; in [10] it was 2.68 µM; in [5], 29.6 µM. Also, the TGI in experiment [6] amounted to 6.71 µM; in experiment [7], 0.754 µM; in [9], 20.3 µM.
In the case of `O=C1/C(=C/c2ccc(Br)s2)NC(=S)N1CN1CCOCC1`, the TGI in experiment [8] is 66.5 µM; in experiment [1], above 100 µM; in experiment [2], above 100 µM; in [3], above 100 µM; in experiment [4], 43 µM; in [10] it was above 100 µM. The TGI in experiment [6], in experiment [7] and in [9] was above 100 µM throughout.
In the case of `CC(=O)/C(=C/n1c(=S)sc2ccccc21)C(=O)Nc1ccccc1C`, the TGI in experiment [8], in [1], in [2], in experiment [3], in [10] and in [5] was above 100 µM in each case. The TGI in experiment [6], in experiment [7] and in experiment [9] was above 100 µM each time.
In the case of `Cc1ccc(C2=Nc3c(c(C)nn3-c3ccccc3)N=C(C(=O)O)C2)cc1`, the TGI in experiment [8], in experiment [1], in [2], in experiment [3], in experiment [10] and in experiment [5] was above 10 µM throughout. In addition, the TGI in [6], in experiment [7] and in experiment [9] was above 10 µM throughout.
Turning to `O=C(CCc1ccc(O)cc1)c1c(O)cc(O)cc1OC1OC(CO)C(O)C(O)C1O` (stereo not given), the TGI in experiment [8], in [2], in [3], in experiment [10], in experiment [5] and in experiment [7] was above 100 µM each time. The TGI in experiment [9] was above 100 µM.
On to `CC(C)=CC1C(C(=O)O)C1(C)C` (stereo not given), for which the TGI in [8], in experiment [1], in experiment [2], in experiment [3], in experiment [4] and in experiment [10] was above 750 µM each time. The TGI in experiment [5], in experiment [6] and in [7] was above 750 µM each time.
For the molecule `COc1cccc(C2c3cc4c(cc3OC(N3CCCC3)C2C)OCO4)c1OC` (stereo not given), the TGI in experiment [8] turned out to be 3.15 µM; in experiment [1] it was 12.5 µM; in experiment [2], 6.7 µM; in experiment [3], 17.9 µM; in [4], 13.2 µM; in experiment [6], 14.5 µM. The TGI stood at 18.8 µM in experiment [7] and 39.3 µM in experiment [9].
As for `c1ccc(N=c2snc(-c3ccccc3)s2)cc1`, the TGI in experiment [8], in experiment [1], in [4], in experiment [10], in [5] and in experiment [6] was above 100 µM in each case. The molecule also gave a TGI in experiment [7] above 100 µM.
Regarding `CCOC(=O)c1c(N)n(-c2ccccc2)c(=S)n(-c2ccccc2)c1=O`, the TGI in experiment [1], in experiment [2], in experiment [3], in experiment [4], in [10] and in experiment [6] was above 100 µM throughout. In addition, the TGI in experiment [7] and in [9] was above 100 µM each time.
On to `CC(=O)CC(=O)c1cc2c(=O)oc(C)cc2oc1=O`, for which the TGI in experiment [8], in [1], in experiment [2], in [3], in [4] and in experiment [10] was above 37.5 µM throughout. The TGI in experiment [5], in experiment [6] and in experiment [7] was above 37.5 µM throughout.
Regarding `OCc1ccccc1C1CSCSC1`, the TGI in experiment [1], in [2], in experiment [10], in experiment [5], in experiment [6] and in experiment [7] was above 100 µM each time.
